Results as given in PMC11997985, “Synthesis and In Vitro Profiling of Psilocin Derivatives: Improved Stability and Synthetic Properties” (Journal of Medicinal Chemistry, 2025).
Where “and” joins values, the source holds several entries; their conditions need not be identical. Equal entries are not always repeated. Entries after “also recorded” stand apart in the source; their conditions may differ. Marks after values point to notes of the source that are not given here.

Experiments:
[1] = Metabolic stability in human microsomes; format: in vitro ADME; details: for Metabolic stability in human microsomes: 37 °C, 0.5 mg/mL protein, 1 μM compound, 1 mM NADPH; for Comment on microsome assay: Table S3
[2] = Stability in simulated stomach acid (0.10 M HCl); details: 0.10 M HCl (simulated stomach acid)
[3] = Chemical stability in 1.0 M NaHCO3 and 1.0 M HCl
porcine liver esterase = test: Stability in FaSSIF supplemented with esterase; details: for % prodrug remaining, measured after 1 min: after 1 min at 20 IU/mL; for predicted half-life: at 270 IU/mL; for predicted abs.: calculated remaining prodrug available for GI absorption, predicted level after 5 min at 270 IU/mL (% remaining prodrug); for half-life at 0.292 mM: pig, FaSSIF supplemented with porcine liver esterase (20 IU/mL)
[4] = Co-factor experiment: microsome suspension with and without NADPH; format: in vitro ADME, human; details: for Co-factor experiment: degradation with and without addition of NADPH compared
Protocol: Therefore, additional experiments comparing stability with and without the addition of NADPH cofactor and a very short incubation period were performed (Tables S4 and S5). […] Due to the rapid observed degradation in microsomes, we decided to investigate the stability of five compounds in human plasma, aiming for a broad range of stabilities (Table 2, Table S6). It should be noted that esterase-labile compounds are notoriously difficult to study in microsomal stability studies.[36]
Table S3 Evaluation of metabolic stability in human microsomes
No. Metabolic stability Comment
4k <10/<10 Low retention in chromatography
8 <10/<10 Low retention in chromatography.
Table S4 Results from the modified microsome assay where degradation with and without the addition of NADPH was compared […]
4d Very low peak area for the first time point,
4e Very low peak area for the first time point,
4f Very low peak area for the first time point,
5 Very low peak area for the first time point,
8 No degradation without co -factor […]
metabolism by the microsomes (consisting mainly of cytochrome P450 enzymes) or if it was due to other factors, the compounds (with the exception of 4k) were incubated in the microsome suspension both with and without the addition of NADPH. Samples […]
(§1) were taken at three timepoints, and the degradation was compared to determine if it was dependent on NADPH. Compound 4k […]
(§2) without the addition of NADPH. […]
(§3) microsomes that need to be activated by a co -factor.
(§4) Table S5 Percent of peak area found in microsome suspension 15 seconds after the addition of NADPH in comparison with the same amount dissolved in H2O/EtOH
(§5) No. Area at 0.25 min. in Area in solution % found in microsomes/NADPH (125 nM) microsome
(§6) Comparison with compounds in solution. A comparison was made between the peak area of the compounds in solution with that obtained in the microsome suspension directly after the addition of NADPH (about 0.25 minutes) (Table S5). Before the addition of NADPH, the compounds are equilibrated in the microsome suspension for approximately five minutes. All compounds were prepared in solution by diluting a portion of the DMSO solutions with H2O/EtOH (75:25) to 125 nM (the final concentration of compounds for analysis in the microsome assay).
(§7) For the compounds where no results from the microsome assay could be reported due to low peak area (4d, 4e, 4f & 5), less than one percent of the expected peak area as compared with the area in solution was detected. […]
(§8) degrade rapidly before the addition of the co-factor after five minutes in incubation. For compounds 4g, 4h, 4i & 4j, which were […]
(§9) higher relative peak areas were found. […]
(§10) without NADPH was only found at 15% of the area seen in solution in the microsome suspension.

[5] = Solubility, screen method, phosphate buffer pH 7.4, 1% DMSO; format: physicochemical; details: phosphate buffer with 1% DMSO; 100 mM phosphate buffer pH 7.4, 1% DMSO; assay range 0.1 to 100 μM
[6] = Peak area in microsome suspension compared with compounds in solution; format: in vitro ADME, human; details: peak area 15 seconds after addition of NADPH versus same amount (125 nM) in H2O/EtOH
Protocol: as §1, §2, §3, §4, §5, §6, §7, §8, §9, §10

[7] = General observations of psilocin salts in solid form in −18 °C freezer; details: for stability (solid form): over 3 weeks in −18 °C freezer, visual inspection and LCMS; for hygroscopic: visual inspection
[8] = Photolytic degradation of psilocin salts; details: for % psilocin remaining: after 14 days
[9] = Forced degradation of psilocin salts, oxidative (0.30% H2O2)
[10] = Forced degradation of psilocin salts, base (0.10 M NaOH); details: for half-life at 24 h, 2 mg/mL freebase psilocin: 0.10 M NaOH (base forced degradation)
[11] = Forced degradation of psilocin salts, acid (1.0 M HCl); details: for half-life at 2 mg/mL freebase psilocin: 1.0 M HCl (acid forced degradation); for % psilocin remaining: after 24 h compared with first measuring point at 1 h, LCMS; for color: visual inspection after 24 h
[12] = Thermal degradation of psilocin salts at 60 °C; details: for % psilocin remaining: after 6 days (143 h)
[13] = 0.30% H2O2 (oxidative forced degradation), half-life, 0.30% H2O2, RT
[14] = 0.30% H2O2 (oxidative forced degradation), half-life, 0.30% H2O2

| SMILES | Metabolic stability in human microsomes [1] | Comment on microsome assay [1] | half-life at 5 mM [2] [h] | half-life at 24 h, 5 mM ([3]; 1.0 M NaHCO3) [h] | Co-factor experiment [4] | stability (solid form) [7] | hygroscopic [7] | half-life at 336 h, 2 mg/mL freebase psilocin [8] [h] | % psilocin remaining ([8]; 12900 lx) [%] | % psilocin remaining ([9]; 0.30% H2O2, after 24 h) [%] | half-life at 24 h, 2 mg/mL freebase psilocin [10] [h] | % psilocin remaining ([10]; 0.10 M NaOH, after 24 h) [%] | half-life at 2 mg/mL freebase psilocin [11] [h] | % psilocin remaining ([11]; 1.0 M HCl) [%] | color ([11]; 1.0 M HCl, RT) | % psilocin remaining [12] [%] | other results |
| --- | --- | --- | --- | --- | --- | --- | --- | --- | --- | --- | --- | --- | --- | --- | --- | --- | --- |
| CC(C)COC(=O)Oc1cccc2[nH]cc(CCN(C)C)c12.O=CO [Compound 4d] | >200^a μL/min/mg protein and >200 μL/min/mg protein | Rapid degradation | > 167 | 36.7 | Very low peak area for the first time point, instability suspected | – | – | – | – | – | – | – | – | – | – | – | half-life at 5 mM ([3]; 1.0 M HCl): > 167 h; degradation rate among prodrugs (porcine liver esterase; FaSSIF, 20 IU/mL esterase): fastest degradation; % prodrug remaining, measured after 1 min (porcine liver esterase): 7%; predicted half-life (porcine liver esterase): 1.2 s; predicted abs. (porcine liver esterase): 7.0 × 10^–77; half-life at 0.292 mM (porcine liver esterase): 15.6 ± 1.2 s; solubility [5]: > 90 µM |
| COC(=O)Oc1cccc2[nH]cc(CCN(C)C)c12.O=C(O)/C=C/C(=O)O [Compound 4e] | >200^a μL/min/mg protein and >200 μL/min/mg protein | Rapid degradation | > 167 | 16.7 | Very low peak area for the first time point, instability suspected | – | – | – | – | – | – | – | – | – | – | – | half-life at 24 h, 5 mM ([3]; 1.0 M HCl): 150 h; % prodrug remaining, measured after 1 min (porcine liver esterase): 60%; % prodrug remaining, no esterase 30 min (porcine liver esterase; after 30 min with no esterase): 100%; predicted half-life (porcine liver esterase): 6 s; predicted abs. (porcine liver esterase): 4.1 × 10^–13; half-life at 0.292 mM (porcine liver esterase): 84.6 ± 19.2 s |
| CN(C)CCc1c[nH]c2cccc(OC(=O)OCc3ccccc3)c12.O=C(O)/C=C/C(=O)O.O=CO [Compound 4f] | >200^a μL/min/mg protein and >200 μL/min/mg protein | Rapid degradation | > 167 | 11.7 | Very low peak area for the first time point, instability suspected | – | – | – | – | – | – | – | – | – | – | – | half-life at 24 h, 5 mM ([3]; 1.0 M HCl): 100 h; % prodrug remaining, measured after 1 min (porcine liver esterase): 21%; predicted half-life (porcine liver esterase): 1.8 s; predicted abs. (porcine liver esterase): 6.6 × 10^–45; half-life at 0.292 mM (porcine liver esterase): 26.4 ± 2.4 s |
| CCCCCCCCCCC(=O)Oc1cccc2[nH]cc(CCN(C)C)c12.O=C(O)/C=C/C(=O)O [Compound 4j] | >200^a μL/min/mg protein and >200 μL/min/mg protein | Rapid degradation | > 167 | 16.7 | Degradation without co-factor | – | – | – | – | – | – | – | – | – | – | – | half-life at 24 h, 5 mM ([3]; 1.0 M HCl): 21.7 h; % found in microsome suspension [6]: 45%; microsomal CLint ([4]; human, human microsome suspension, both with and without the addition of NADPH, read-out: intrinsic clearance): > 200 µL/min/mg |
| CN(C)CCc1c[nH]c2cccc(OC(=O)N3CCCCC3)c12.O=C(O)/C=C/C(=O)O [Compound 4k] | <10/<10^b μL/min/mg protein and <10 μL/min/mg protein | – | > 167 | – | – | – | – | – | – | – | – | – | – | – | – | – | half-life at 5 mM ([3]; 1.0 M HCl): > 167 h; half-life at 5 mM ([3]; 1.0 M NaHCO3): > 167 h; % found in microsome suspension [6]: 79%; solubility [5]: > 90 µM |
| CN(C)CCc1c[nH]c2cccc(OB(O)O)c12.O=C(O)/C=C/C(=O)O [Compound 5] | >200^a μL/min/mg protein and >200 μL/min/mg protein | Rapid degradation | < 0.0833 | – | Very low peak area for the first time point, instability suspected | – | – | – | – | – | – | – | – | – | – | – | half-life at 5 mM ([3]; 1.0 M HCl): < 0.0833 h; half-life at 5 mM ([3]; 1.0 M NaHCO3): < 0.0833 h |
| CN(C)CCc1c[nH]c2cccc(O)c12.Cl [Compound 9a] | – | – | – | – | – | degrading during storage after only 3 days; also recorded: not very stable | highly hygroscopic and yes | 333 | 51 | 100 | 8.33 | 0 | > 167 | 100 | clear | 0 | half-life at 2 mg/mL freebase psilocin [9, 13]: > 167 h; half-life at 2 mg/mL freebase psilocin [12]: < 48 h; half-life at 144 h, 2 mg/mL freebase psilocin [12]: 50 h |
| CN(C)CCc1c[nH]c2cccc(O)c12.OB(O)O [Compound 9b] | – | – | – | – | – | stable enough to store as a solid in the freezer for an extended period; also recorded: no change | no | – | 0 | 0 | – | 0 | – | 93 | clear | 0 | half-life ([8]; 12900 lx, RT): <1000 ^b min; time to complete breakdown ([8]; 12900 lx, RT): ≤ 1 week; color (24 h) ([8]; 12900 lx, RT, water:acetonitrile 1:1): black; control sample stored in darkness ([8]; in air at RT for a week, dissolved salt): entirely degraded; time to complete degradation ([9]; 0.30% H2O2): ≤ 3 h; half-life ([9]; 0.30% H2O2, RT): <1 h; color ([9]; 0.30% H2O2, after 24 h, RT): brown; half-life ([10]; 0.10 M NaOH, RT): 6.67 h; color ([10]; 0.10 M NaOH, after 24 h, RT): black; half-life ([11]; 1.0 M HCl, RT): >10,000 min; half-life [12]: <11.7 h; time to complete degradation [12]: ≤ 24 h; color (24 h) ([12]; water:acetonitrile 1:1): black |
| CN(C)CCc1c[nH]c2cccc(O)c12.O=C(O)c1ccccc1 [Compound 9c] | – | – | – | – | – | stable enough to store as a solid in the freezer for an extended period; also recorded: no change | no | 150 | 0 | 94 | 8.33 | 0 | > 167 | 100 | clear | 0 | time to complete breakdown ([8]; 12900 lx, RT): ≤ 1 week; half-life at 2 mg/mL freebase psilocin [9, 13]: > 167 h; half-life at 2 mg/mL freebase psilocin [12]: < 48 h; half-life at 144 h, 2 mg/mL freebase psilocin [12]: 33.3 h |
| CN(C)CCc1c[nH]c2cccc(O)c12.O=P(O)(O)O [Compound 9e] | – | – | – | – | – | darkens after 1 week | no | 333 | 33 | 83 | 5 | 0 | > 167 | 94 | clear | 0 | half-life at 2 mg/mL freebase psilocin [9, 14]: > 24 h; half-life at 24 h, 2 mg/mL freebase psilocin [9, 13]: 13.3 h; half-life at 144 h, 2 mg/mL freebase psilocin [12]: 66.7 h |
| CN(C)CCc1c[nH]c2cccc(O)c12.O=C(O)C(F)(F)F [Compound 9f] | – | – | – | – | – | degrades within 3 days | highly hygroscopic and yes | 167 | 22 | 78 | 15 | 0 | > 167 | 99 | clear | 0 | half-life at 2 mg/mL freebase psilocin [9, 14]: > 24 h; half-life at 2 mg/mL freebase psilocin [9, 13]: 33.3 h; half-life at 2 mg/mL freebase psilocin [12]: < 48 h |
